Measured values reported in PubChem BioAssay (NCI).
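Briefly, cells in 96-well plates were exposed to five compound concentrations for 48 h, and endpoints were estimated by linear interpolation. Abbreviation: GI50, concentration required for 50% inhibition of growth. TGI: concentration producing complete growth inhibition.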

Assays:
Assay in all cases: inhibition of tumour cell growth, NCI panel, 48 h; in the data active = GI50 below about 0.43 µM; inactive = the rest
786-0 renal = test system: 786-0 renal
A498 renal = test system: A498 renal
A549 NSCLC = test system: A549 NSCLC
ACHN renal = test system: ACHN renal
BT-549 breast = test system: BT-549 breast
CAKI-1 renal = test system: CAKI-1 renal
CCRF-CEM leukemia = test system: CCRF-CEM leukemia
COLO 205 colon = test system: COLO 205 colon
DU-145 prostate = test system: DU-145 prostate
EKVX NSCLC = test system: EKVX NSCLC
HCC-2998 colon = test system: HCC-2998 colon
HCT-116 colon = test system: HCT-116 colon
HCT-15 colon = test system: HCT-15 colon
HL-60(TB) leukemia = test system: HL-60(TB) leukemia
HOP-62 NSCLC = test system: HOP-62 NSCLC
HOP-92 NSCLC = test system: HOP-92 NSCLC
HS 578T breast = test system: HS 578T breast
HT29 colon = test system: HT29 colon
K-562 leukemia = test system: K-562 leukemia
KM12 colon = test system: KM12 colon
LOX IMVI melanoma = test system: LOX IMVI melanoma
M14 melanoma = test system: M14 melanoma
MALME-3M melanoma = test system: MALME-3M melanoma
MCF7 breast = test system: MCF7 breast
MDA-MB-435 = test system: MDA-MB-435
MOLT-4 leukemia = test system: MOLT-4 leukemia
NCI-H226 lung = test system: NCI-H226 lung
NCI-H23 lung = test system: NCI-H23 lung
NCI-H460 lung = test system: NCI-H460 lung
NCI-H522 lung = test system: NCI-H522 lung
NCI/ADR-RES ovarian = test system: NCI/ADR-RES ovarian
OVCAR-3 ovarian = test system: OVCAR-3 ovarian
OVCAR-4 ovarian = test system: OVCAR-4 ovarian
OVCAR-5 ovarian = test system: OVCAR-5 ovarian
OVCAR-8 ovarian = test system: OVCAR-8 ovarian
PC-3 prostate = test system: PC-3 prostate
RXF 393 renal = test system: RXF 393 renal
SF-268 CNS = test system: SF-268 CNS
SF-295 CNS = test system: SF-295 CNS
SF-539 CNS = test system: SF-539 CNS
SK-MEL-2 melanoma = test system: SK-MEL-2 melanoma
SK-MEL-28 melanoma = test system: SK-MEL-28 melanoma
SK-MEL-5 melanoma = test system: SK-MEL-5 melanoma
SK-OV-3 ovarian = test system: SK-OV-3 ovarian
SN12C renal = test system: SN12C renal
SNB-19 CNS = test system: SNB-19 CNS
SNB-75 CNS = test system: SNB-75 CNS
SR leukemia = test system: SR leukemia
SW-620 colon = test system: SW-620 colon
T-47D breast = test system: T-47D breast
TK-10 renal = test system: TK-10 renal
U251 CNS = test system: U251 CNS
UACC-257 melanoma = test system: UACC-257 melanoma
UACC-62 melanoma = test system: UACC-62 melanoma
UO-31 renal = test system: UO-31 renal
RPMI-8226 leukemia = test system: RPMI-8226 leukemia

COc1ncc(-c2ccc3nccc(C#CCCCCC(=O)O)c3c2)cc1NS(=O)(=O)c1ccc(F)cc1F
44.1 µM: TGI (SR leukemia)
0.0849 µM: TGI (T-47D breast)
5.92 µM: TGI (UACC-257 melanoma)
23.3 µM: TGI (OVCAR-3 ovarian)
> 100 µM: TGI (A549 NSCLC) | TGI (ACHN renal) | TGI (CAKI-1 renal) | TGI (CCRF-CEM leukemia) | TGI (DU-145 prostate) | TGI (HCC-2998 colon) | TGI (HCT-116 colon) | TGI (HCT-15 colon) | TGI (HOP-62 NSCLC) | TGI (HT29 colon) | TGI (K-562 leukemia) | TGI (KM12 colon) | TGI (M14 melanoma) | TGI (MCF7 breast) | TGI (MDA-MB-435) | TGI (NCI-H226 lung) | TGI (NCI-H23 lung) | TGI (NCI-H460 lung) | TGI (NCI-H522 lung) | TGI (NCI/ADR-RES ovarian) | TGI (OVCAR-5 ovarian) | TGI (OVCAR-8 ovarian) | TGI (PC-3 prostate) | TGI (SF-268 CNS) | TGI (SK-MEL-28 melanoma) | TGI (SN12C renal) | TGI (SW-620 colon)
6.45 µM: TGI (SF-295 CNS)
59.1 µM: TGI (HL-60(TB) leukemia)
0.62 µM: TGI (HOP-92 NSCLC)
3.02 µM: TGI (UACC-62 melanoma)
2.34 µM: TGI (HS 578T breast)
45.1 µM: TGI (EKVX NSCLC)
active: GI50 (A498 renal) 0.0408 µM | GI50 (COLO 205 colon) 0.108 µM | GI50 (HCT-15 colon) 0.362 µM | GI50 (HL-60(TB) leukemia) 0.283 µM | GI50 (HOP-92 NSCLC) 0.0158 µM | GI50 (HS 578T breast) 0.0657 µM | GI50 (HT29 colon) 0.0826 µM | GI50 (MALME-3M melanoma) 0.0761 µM | GI50 (MCF7 breast) 0.015 µM | GI50 (NCI-H460 lung) 0.324 µM | GI50 (OVCAR-5 ovarian) 0.122 µM | GI50 (SK-OV-3 ovarian) 0.0432 µM | GI50 (SNB-75 CNS) 0.0199 µM | GI50 (TK-10 renal) 0.0846 µM | GI50 (UACC-257 melanoma) 0.355 µM | GI50 (UACC-62 melanoma) 0.274 µM | GI50 (UO-31 renal) 0.207 µM
27.8 µM: TGI (U251 CNS)
8.92 µM: TGI (BT-549 breast)
0.657 µM: TGI (SK-OV-3 ovarian)
17.3 µM: TGI (786-0 renal)
15.2 µM: TGI (SK-MEL-2 melanoma)
83.8 µM: TGI (OVCAR-4 ovarian)
14.1 µM: TGI (UO-31 renal)
inactive: GI50 (786-0 renal) 1.04 µM | GI50 (A549 NSCLC) 0.557 µM | GI50 (ACHN renal) 2.73 µM | GI50 (BT-549 breast) 0.449 µM | GI50 (CAKI-1 renal) 0.819 µM | GI50 (CCRF-CEM leukemia) 1.21 µM | GI50 (DU-145 prostate) 2.09 µM | GI50 (EKVX NSCLC) 1.11 µM | GI50 (HCC-2998 colon) 0.626 µM | GI50 (HCT-116 colon) 6.85 µM | GI50 (HOP-62 NSCLC) 1.16 µM | GI50 (K-562 leukemia) 17.2 µM | GI50 (KM12 colon) 2.88 µM | GI50 (LOX IMVI melanoma) 0.941 µM | GI50 (M14 melanoma) 1.61 µM | GI50 (MDA-MB-435) 0.845 µM | GI50 (MOLT-4 leukemia) 0.52 µM | GI50 (NCI-H226 lung) 4.73 µM | GI50 (NCI-H23 lung) 2.39 µM | GI50 (NCI-H522 lung) 1.25 µM | GI50 (NCI/ADR-RES ovarian) 3.97 µM | GI50 (OVCAR-3 ovarian) 0.733 µM | GI50 (OVCAR-4 ovarian) 3.62 µM | GI50 (OVCAR-8 ovarian) 2.36 µM | GI50 (PC-3 prostate) 0.548 µM | GI50 (RXF 393 renal) 1.12 µM | GI50 (SF-268 CNS) 1.17 µM | GI50 (SF-295 CNS) 0.735 µM | GI50 (SF-539 CNS) 0.492 µM | GI50 (SK-MEL-2 melanoma) 1.6 µM | GI50 (SK-MEL-28 melanoma) 0.539 µM | GI50 (SK-MEL-5 melanoma) 2.84 µM | GI50 (SN12C renal) 2.55 µM | GI50 (SNB-19 CNS) 2.05 µM | GI50 (SR leukemia) 1.67 µM | GI50 (SW-620 colon) 1.91 µM | GI50 (U251 CNS) 0.562 µM
18.9 µM: TGI (LOX IMVI melanoma)
33.5 µM: TGI (MOLT-4 leukemia)
0.98 µM: TGI (SNB-75 CNS)
0.799 µM: TGI (A498 renal)
5.87 µM: TGI (SF-539 CNS)
15 µM: TGI (SK-MEL-5 melanoma)
9.67 µM: TGI (TK-10 renal)
6.02 µM: TGI (RXF 393 renal)
84.9 µM: TGI (SNB-19 CNS)
30.2 µM: TGI (COLO 205 colon)
0.916 µM: TGI (MALME-3M melanoma)

Nc1ccccc1C#C/C=C\C#Cc1cnccn1
28.5 µM: TGI (COLO 205 colon)
20.7 µM: TGI (SN12C renal)
20.4 µM: TGI (M14 melanoma)
74.3 µM: TGI (HT29 colon)
68.5 µM: TGI (MOLT-4 leukemia)
21 µM: TGI (UACC-62 melanoma)
21.3 µM: TGI (SK-MEL-5 melanoma)
23 µM: TGI (HCC-2998 colon)
79.7 µM: TGI (ACHN renal)
17.5 µM: TGI (LOX IMVI melanoma)
58.6 µM: TGI (MALME-3M melanoma)
90.7 µM: TGI (SNB-75 CNS)
23.8 µM: TGI (PC-3 prostate)
23.2 µM: TGI (HCT-116 colon)
31.9 µM: TGI (NCI/ADR-RES ovarian)
95.5 µM: TGI (SK-OV-3 ovarian)
27 µM: TGI (NCI-H23 lung)
19.2 µM: TGI (RPMI-8226 leukemia)
46.1 µM: TGI (SW-620 colon)
87.6 µM: TGI (SF-539 CNS)
70.2 µM: TGI (BT-549 breast)
60 µM: TGI (TK-10 renal)
32.3 µM: TGI (HOP-62 NSCLC)
40.3 µM: TGI (T-47D breast)
41.8 µM: TGI (U251 CNS)
14.8 µM: TGI (CCRF-CEM leukemia)
inactive: GI50 (A549 NSCLC) 30.2 µM | GI50 (ACHN renal) 22.2 µM | GI50 (BT-549 breast) 20.3 µM | GI50 (CAKI-1 renal) 46.3 µM | GI50 (COLO 205 colon) 14.5 µM | GI50 (DU-145 prostate) 19.4 µM | GI50 (EKVX NSCLC) 16.3 µM | GI50 (HCC-2998 colon) 11 µM | GI50 (HCT-116 colon) 11.2 µM | GI50 (HCT-15 colon) 26.1 µM | GI50 (HOP-62 NSCLC) 13.6 µM | GI50 (HOP-92 NSCLC) 1.36 µM | GI50 (HS 578T breast) 27 µM | GI50 (HT29 colon) 23.4 µM | GI50 (K-562 leukemia) 6.66 µM | GI50 (KM12 colon) 23.3 µM | GI50 (LOX IMVI melanoma) 2.93 µM | GI50 (M14 melanoma) 6.21 µM | GI50 (MALME-3M melanoma) 19.9 µM | GI50 (MCF7 breast) 21.3 µM | GI50 (MDA-MB-435) 48.4 µM | GI50 (MOLT-4 leukemia) 12.4 µM | GI50 (NCI-H23 lung) 12.1 µM | GI50 (NCI-H460 lung) 29.8 µM | GI50 (NCI/ADR-RES ovarian) 13.7 µM | GI50 (OVCAR-3 ovarian) 86.5 µM | GI50 (OVCAR-4 ovarian) 23.1 µM | GI50 (OVCAR-5 ovarian) 18.8 µM | GI50 (OVCAR-8 ovarian) 41.8 µM | GI50 (PC-3 prostate) 4.11 µM | GI50 (RPMI-8226 leukemia) 3.17 µM | GI50 (SF-268 CNS) 27.5 µM | GI50 (SF-295 CNS) 74.6 µM | GI50 (SF-539 CNS) 22.8 µM | GI50 (SK-MEL-28 melanoma) 27.8 µM | GI50 (SK-MEL-5 melanoma) 6.34 µM | GI50 (SK-OV-3 ovarian) 31.1 µM | GI50 (SN12C renal) 4.33 µM | GI50 (SNB-19 CNS) 36.7 µM | GI50 (SNB-75 CNS) 21.1 µM | GI50 (SW-620 colon) 15.2 µM | GI50 (T-47D breast) 17.7 µM | GI50 (TK-10 renal) 32.4 µM | GI50 (U251 CNS) 18.2 µM | GI50 (UACC-257 melanoma) 26 µM | GI50 (UACC-62 melanoma) 3.95 µM
45.7 µM: TGI (OVCAR-5 ovarian)
18.3 µM: TGI (HOP-92 NSCLC)
> 100 µM: TGI (A549 NSCLC) | TGI (CAKI-1 renal) | TGI (DU-145 prostate) | TGI (EKVX NSCLC) | TGI (HCT-15 colon) | TGI (HS 578T breast) | TGI (K-562 leukemia) | TGI (KM12 colon) | TGI (MCF7 breast) | TGI (MDA-MB-435) | TGI (NCI-H460 lung) | TGI (OVCAR-3 ovarian) | TGI (OVCAR-4 ovarian) | TGI (OVCAR-8 ovarian) | TGI (SF-268 CNS) | TGI (SF-295 CNS) | TGI (SK-MEL-28 melanoma) | TGI (SNB-19 CNS) | TGI (UACC-257 melanoma)
